PubChem BioAssay AID1259418 (Broad Institute, 2018)
Where “and” joins values, the source holds several entries; their conditions need not be identical. Equal values may be shown once. Results filed as inconclusive are left out. Calls of active or inactive are those of the source.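 Rule for the calls: active = fitted half-maximal concentration of signal decrease at or below twice the sample's top tested concentration; inconclusive = flat curve between -70 and -30 percent, or poor fit; inactive = flat within 30 percent, signal rise, or potency above limit.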 Starred links: 1 amine or outer side, 2 acyl side, 3 side chain; linkers in the order of their positions; H or OH if unused. Positions of bridges follow the written chain, without caps; N, C: chain ends. Non-standard residues stand in square brackets, D forms with d. Residues, ends and D or L forms follow the SMILES beside them. ξ: configuration not given here. *: point of attachment. pTerphenylCO(4''-OnC5H11) = CCCCCOc1ccc(-c2ccc(-c3ccc(C(=O)*)cc3)cc2)cc1; ξOrn(4,5-diOH) = O=C(C(CC(O)C(O)N[*:3])N[*:1])[*:2]; ξhTyr(βξ-OH,γξ-OH) = NC(C(=O)O)C(O)C(O)c1ccc(O)cc1; ξPro(3ξ-OH,4ξ-Me) = CC1CNC(C(=O)O)C1O; Hyp = O=C(O)[CH]1C[CH](O)CN1

The compounds below were run against T. gondii ME49Luc in IFN-y HeLa, luciferase, 72 h (assay: inhibitors of Toxoplasma growth in IFN-γ-primed HeLa – cell-based, ME49Luc, luciferase, 72 h, dose response (AID 1259418)).

SMILES | AC50
CC(C)n1c(C(=O)Nc2cccc(F)c2)nc2c1CCN(Cc1ccccc1)C2 | 9.4 µM
CCOc1ccc(CC(=O)N2CCC3(CC2)Nc2cc(F)ccc2-n2cccc23)cc1OCC | > 39 µM (inactive)
Cc1cccc(-c2ccc([C@@H]3[C@H](CO)N4CCCCN(S(=O)(=O)c5ccccc5F)C[C@@H]34)cc2)c1 | 16.6 µM and 10.7 µM
Cc1cc(C(C)(C)CC(C)(C)C)ccc1OCCOCC[N+](C)(C)Cc1ccccc1 | 14.9 µM
CC(C)CC#Cc1ccc([C@@H]2[C@H](CO)N3C(=O)CN(C(=O)Nc4cc(F)ccc4F)C[C@@H]23)cc1 | 12.6 µM and 4.61 µM
COCCN(CCOC)C(=O)c1cc2c(c3ccccc3n2CC2CC2)n1-c1ncccn1 | 28 µM
Cc1ccc(S(=O)(=O)N2CCC3(CC2)NCCN=C3NC2CCCCCC2)cc1C | 18.6 µM
COc1ccc(N(Cc2nc(-c3ccccc3OC)oc2C)S(=O)(=O)c2ccc(OC)cc2)cc1 | 17.9 µM
COCC(=O)N1[C@H](C#N)[C@H](c2ccc(C#Cc3ccccc3F)cc2)[C@@H]1CO | > 39 µM (inactive)
Cc1cnn(C(C)C(=O)N2CCc3[nH]nc(-c4ccc(F)c(F)c4)c3C2)c1 (stereo not drawn) | > 20 µM (inactive)
CCc1ccc(S(=O)(=O)N2CCC3(CC2)NCCN=C3NCc2ccc(Cl)cc2)cc1 | 7.78 µM
Cc1ccc(OCC(=O)Nc2ccc(-c3nc(-c4ccccc4)co3)cc2)cc1 | > 39 µM (inactive)
O=C(c1ccc(-n2c(=S)[nH]c3ccccc3c2=O)cc1)N1CCC(O)(c2cccc(C(F)(F)F)c2)CC1 | 38 µM
Cc1nc(OCC(=O)Nc2ccc(Br)cc2F)c2ccccc2n1 | 21 µM
CCc1nc(OCC(=O)Nc2ccc(Cl)cc2Cl)c2ccccc2n1 | 30 µM
Cc1ccccc1-c1nc(CN2CCN(C(=O)NCCc3ccccc3)CC2)c(C)o1 | 17.4 µM
Cc1cccc(CNC2=NCCNC23CCN(S(=O)(=O)c2ccc(C(C)C)cc2)CC3)c1 | 13 µM
O=S(=O)(c1ccc2c(c1)CCCC2)N1CCC2(CC1)NCCN=C2NC1CCCCC1 | 11.7 µM
CC(C)NC(=O)N1CC(=O)N2[C@H](C1)[C@@H](c1ccc(/C=C/c3ccccc3)cc1)[C@@H]2CO | 10.4 µM
Clc1ccc(-c2nc(NC3CCCC3)c3ccccc3n2)cc1 | 17.6 µM
O=C(c1cnccn1)N1CC(=O)N2[C@H](C1)[C@H](c1ccc(/C=C/c3ccccc3)cc1)[C@@H]2CO | 11.9 µM and 23.5 µM

SMILES | AC50
O=C(c1ccc(F)cc1)N1CC(=O)N2[C@H](C1)[C@@H](c1ccc(C#CCC3CCCC3)cc1)[C@@H]2CO | 20.4 µM and 10.1 µM
Cc1ccc(CNC2=NCCNC23CCN(S(=O)(=O)c2cc(C)c(C)cc2C)CC3)cc1 | 4.79 µM
O=C(NCc1ccccc1)C1CC2(CO1)CN(C(=O)c1ccc(F)cc1)c1ccccc12 (stereo not drawn) | > 39 µM (inactive)
Cc1ccccc1S(=O)(=O)N1C[C@@H]2N[C@H](C1)C2c1ccc(-c2cccc(C#N)c2)cc1 (stereo partly drawn) | 15.6 µM and 2.57 µM and 18.7 µM
CN(C)C(=O)c1ccc(-c2ccc3c(c2)[C@@H]2[C@@H](CCN2C(=O)C2CCCC2)[C@H](CO)N3C)cc1 | 20.6 µM
O=C1CCc2cc(S(=O)(=O)NCc3ccco3)cc3c2N1CCC3 | > 39 µM (inactive)
Cc1ccccc1-c1ccc(C2[C@@H]3CN(C(=O)c4ccc(F)cc4)C[C@H]2N3)cc1 (stereo partly drawn) | 19 µM
O=C(Nc1ccc(F)cc1)N1CC(=O)N2[C@H](C1)[C@@H](c1ccc(-c3cccc(F)c3)cc1)[C@@H]2CO | 8.5 µM and 5.04 µM
O=C(c1ccc(-n2nc(C(F)(F)F)c3c2CCCC3)cc1)N1CCN(C2CCCCC2)CC1 | 10.1 µM and > 39 µM (inactive)
COc1ccc(-c2nc(NCCCN3CCCC3)c3ccccc3n2)cc1 | 14.2 µM
N#C[C@@H]1[C@H](c2ccc(-c3cccc(F)c3)cc2)[C@H](CO)N1C(=O)NC1CCCC1 | 15.1 µM and 4.56 µM
O=C(CC1N=C2c3ccccc3N=C(SCc3cccc(F)c3)N2C1=O)NC1CCCCC1 (stereo not drawn) | 30 µM
Cc1ccc(-c2csc(-c3cccn3CC(=O)NCCN3CCC(C)CC3)n2)cc1 | 6.43 µM
CC(C)Cc1ccc(S(=O)(=O)N2CCC[C@@H]2C(=O)NCCc2csc(-c3ccccc3)n2)cc1 | 12.4 µM
CCCCCOc1ccc(-c2ccc(-c3ccc(C(=O)NC4CC(O)C(O)NC(=O)C5C(O)C(C)CN5C(=O)C(C(C)O)NC(=O)C(C(O)C(O)c5ccc(O)cc5)NC(=O)C5CC(O)CN5C(=O)C(C(C)O)NC4=O)cc3)cc2)cc1 (stereo not drawn) ({pTerphenylCO(4''-OnC5H11)}-[ξOrn(4,5-diOH)]T[Hyp][ξhTyr(βξ-OH,γξ-OH)]T[ξPro(3ξ-OH,4ξ-Me)]; lactam 1-C; configuration not given here) | 25 µM
CCc1nc(OCC(=O)Nc2cccc(Br)c2)c2ccccc2n1 | > 39 µM (inactive)
COCCCNc1ncnc2c1cnn2-c1cccc(C)c1 | 14.6 µM
COc1ccccc1C(=O)Nc1ccc(-c2nc(-c3ccc(C)cc3)co2)cc1 | 19.1 µM
O=C(CC1N=C2c3ccccc3N=C(SCc3ccccc3Cl)N2C1=O)NCc1cccs1 (stereo not drawn) | 21.5 µM
COCCNc1nc(-c2ccc(OC)cc2)nc2ccccc12 | 18.4 µM
CO[C@@H]1[C@@H](OC(N)=O)[C@@H](O)[C@H](Oc2ccc3c(O)c(NC(=O)c4ccc(O)c(CC=C(C)C)c4)c(=O)oc3c2C)OC1(C)C | 22.2 µM

SMILES | AC50
O=C(c1ccco1)N1CCC2(CC1)Nc1ccc(Cl)cc1-n1cccc12 | 32.1 µM
COc1ccc(S(=O)(=O)N(Cc2nc(-c3ccccc3OC)oc2C)c2ccccc2OC)cc1 | 13.7 µM
COc1cc(Nc2nc(SCc3ccccc3F)nc3ccccc23)cc(OC)c1OC | 20.6 µM
COc1ccc(NC(=O)CN2CCC3(CC2)N=C(c2cccc(Cl)c2)C(=O)N3)cc1 | 18.2 µM
Cc1ccc(-c2coc(-c3ccc(NS(=O)(=O)c4ccc(F)c(Cl)c4)cc3)n2)c(C)c1 | 24.7 µM
COCC(=O)N1[C@H](C#N)[C@H](c2ccc(C#CCC3CCCC3)cc2)[C@@H]1CO | 29.6 µM and 27.8 µM
COc1cc2nc(N3CCN(C(=O)c4ccco4)CC3)nc(N)c2cc1OC | 18.4 µM
O=C(CCC1N=C2c3ccccc3N=C(SCc3ccc(F)cc3)N2C1=O)NCc1ccc(F)cc1 (stereo not drawn) | > 39 µM (inactive)
Cc1ccc(C(=O)N2CCC3(CC2)Nc2ccc(Cl)cc2-n2cccc23)cc1F | > 39 µM (inactive)
Cc1ccccc1-c1ccc(C2[C@@H]3CN(C(=O)C4CCOCC4)C[C@H]2N3)cc1 (stereo partly drawn) | 26.4 µM
O=C(c1cnccn1)N1CC(=O)N2[C@H](CO)[C@H](c3ccc(/C=C/c4ccccc4)cc3)[C@@H]2C1 | 24.8 µM
COc1cccc(-c2ccc([C@H]3[C@H]4CN(C(=O)Cc5ccncc5)CCCCN4[C@H]3CO)cc2)c1 | > 39 µM (inactive)
COc1cc(NC(=O)Nc2ccc(-c3nc(-c4cc(C)ccc4C)co3)cc2)cc(OC)c1 | 9.46 µM
COc1ccc(N2CC(NC(=O)C(=O)c3c[nH]c4ccccc34)CC2=O)cc1 (stereo not drawn) | 28.3 µM
Cc1ccc(-c2coc(-c3ccc(NS(=O)(=O)c4ccc(CC(C)C)cc4)cc3)n2)c(C)c1 | > 39 µM (inactive)
C/C=C/c1ccc([C@@H]2[C@@H](CO)N3CCCCN(CCC(F)(F)F)C[C@@H]23)cc1 | 17.4 µM
O=C(NCCc1csc(-c2ccccc2)n1)C1CCN(C(=O)c2ccco2)CC1 | > 39 µM (inactive)
CC(C)(C)OC(=O)Nc1cc(-c2cn[nH]c2C2CCCN(C(=O)OC(C)(C)C)C2)ccn1 (stereo not drawn) | 10.1 µM
O=S(=O)(c1cccs1)N1CCC2(CC1)NCCN=C2NCc1ccc(Cl)cc1 | > 39 µM (inactive)
COc1cccc(C#Cc2ccc([C@@H]3[C@H](C#N)N(C(=O)c4ccccn4)[C@H]3CO)cc2)c1 | 20.7 µM
Cc1ccc(-c2cc(O)c3c(c2)CN(C(=O)CCN2CCCO2)CCO3)s1 | 13.5 µM
